Experiments:
HIV-RF = experiment: In-vitro anti-viral test on C81-66 cells infected with HIV-RF (wells positive for HIV p24); assay type: cell-based; conditions: no pretreatment, number of wells positive for HIV p24 out of two replicates
Source text: NOTE: • 1. The results are expressed as the number of wells positive for HIV p24 (out of the two replicates at each multiplicity of infection). Thus, 2 means that both wells contained viral antigen, while 0 means no virus was present. • 2. Pretreatment means that the antibodies to Human Alpha feto protein were present during HIV virus absorption as well as afterwards. • 3. An error in diluting the antibodies was made, so that following the first three concentrations (6,2, and 0.6 percent), an extra 10 fold dilution was made, so that the next dilution was 0.02% rather than 0.2%.

HIV p24 peptide = molecular target: T1, HIV p24 peptide (Human immunodeficiency virus type 1 group M subtype B, UniProt P04591); experiment: Binding of 3H arachidonic acid (C20:4) to peptide, free ligand removed with Lipidex 1000; conditions: 270.000 DPM 3H C20:4, overnight at 4° C, 10 mM potassium phosphate buffer pH 7.4
T1 construct: Peptide p24, 1 mg in 200 µl of an aqueous solution of acetic acid
Procedure: (§1) Solubilisation of the peptides: • : Peptide gp120, 1 mg in 180 µl of an aqueous solution of acetic acid and 20 µl acetonitrile • : Peptide p24, 1 mg in 200 µl of an aqueous solution of acetic acid
(§2) Incubation of 50 […] or 100 µg of each peptide or 10 µg of pure rat Alpha Feto Protein with 270.000 DPM ^3H C20:4 (SA 198 Ci/mmol), overnight at 4° C, in 0.5 ml of 10 mM potassium phosphate buffer 10mM pH 7.4.
(§3) Binding of Arachidonic Acid to peptides or protein measured after separation of the free ligand from the bound one using Lipidex 1000 (100 µl Lipidex solution 10 minutes at 4°C. The free ligand is bound to Lipidex 1000, the bound ligand to peptides and proteins remains in the supernatant after centrifugation.

HIV gp120 peptide = molecular target: T2, HIV gp120 peptide (Human immunodeficiency virus type 1 group M subtype B, UniProt P04578); experiment: as above
T2 construct: Peptide gp120, 1 mg in 180 µl of an aqueous solution of acetic acid and 20 µl acetonitrile
Procedure: as §1, §2, §3

[1] = Solubility of 3H C20:4 before and after addition of peptides or protein; assay type: physicochemical
Procedure: as §2
Solubility of ^3H C20:4 tested before and after addition of peptides or protein: […]

[2] = molecular target: T3, pure rat Alpha Feto Protein (Rattus norvegicus, UniProt P02773); experiment: Binding of 3H arachidonic acid (C20:4) to protein, free ligand removed with Lipidex 1000; conditions: 10 µg pure rat AFP; 270.000 DPM 3H C20:4, overnight at 4° C, 10 mM potassium phosphate buffer pH 7.4
T3 sequence (P02773 25-611): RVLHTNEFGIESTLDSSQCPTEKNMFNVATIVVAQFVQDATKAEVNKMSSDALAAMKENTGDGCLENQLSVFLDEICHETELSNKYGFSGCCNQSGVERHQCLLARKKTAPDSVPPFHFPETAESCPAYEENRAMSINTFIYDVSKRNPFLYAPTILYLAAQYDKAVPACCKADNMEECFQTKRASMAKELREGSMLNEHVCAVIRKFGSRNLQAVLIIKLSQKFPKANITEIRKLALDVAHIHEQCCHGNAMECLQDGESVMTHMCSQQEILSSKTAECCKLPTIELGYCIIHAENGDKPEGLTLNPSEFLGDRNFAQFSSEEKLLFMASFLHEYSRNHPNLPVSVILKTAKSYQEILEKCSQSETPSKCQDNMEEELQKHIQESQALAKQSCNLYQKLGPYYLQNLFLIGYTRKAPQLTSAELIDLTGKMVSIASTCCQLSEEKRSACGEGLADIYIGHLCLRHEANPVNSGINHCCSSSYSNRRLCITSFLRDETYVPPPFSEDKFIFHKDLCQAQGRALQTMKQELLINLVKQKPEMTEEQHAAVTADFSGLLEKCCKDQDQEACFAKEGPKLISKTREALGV
Procedure: as §2, §3

T2 sequence (P04578 247-267): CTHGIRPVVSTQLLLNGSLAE

Cc1cn([C@H]2C[C@H](N=[N+]=[N-])[C@@H](CO)O2)c(=O)[nH]c1=O [AZT]
Virus Replication at a.m.i. (log) of: -1 (HIV-RF; 10 μM): 2
Virus Replication at a.m.i. (log) of: -2 (HIV-RF; 10 μM): 1
Virus Replication at a.m.i. (log) of: -3 (HIV-RF; 10 μM): 0
Virus Replication at a.m.i. (log) of: -4 (HIV-RF; 10 μM): 0
Virus Replication at a.m.i. (log) of: -5 (HIV-RF; 10 μM): 0
Virus Replication at a.m.i. (log) of: -6 (HIV-RF; 10 μM): 0
Virus Replication at a.m.i. (log) of: -1 (HIV-RF; Conc. 0.01 (μM)): 2
Virus Replication at a.m.i. (log) of: -2 (HIV-RF; Conc. 0.01 (μM)): 2
Virus Replication at a.m.i. (log) of: -3 (HIV-RF; Conc. 0.01 (μM)): 2
Virus Replication at a.m.i. (log) of: -4 (HIV-RF; Conc. 0.01 (μM)): 2
Virus Replication at a.m.i. (log) of: -5 (HIV-RF; Conc. 0.01 (μM)): 1
Virus Replication at a.m.i. (log) of: -6 (HIV-RF; Conc. 0.01 (μM)): 0
Virus Replication at a.m.i. (log) of: -1 (HIV-RF; Conc. 0.1 (μM)): 2
Virus Replication at a.m.i. (log) of: -2 (HIV-RF; Conc. 0.1 (μM)): 2
Virus Replication at a.m.i. (log) of: -3 (HIV-RF; Conc. 0.1 (μM)): 2
Virus Replication at a.m.i. (log) of: -4 (HIV-RF; Conc. 0.1 (μM)): 2
Virus Replication at a.m.i. (log) of: -5 (HIV-RF; Conc. 0.1 (μM)): 0
Virus Replication at a.m.i. (log) of: -6 (HIV-RF; Conc. 0.1 (μM)): 0
Virus Replication at a.m.i. (log) of: -1 (HIV-RF; Conc. 1 (μM)): 2
Virus Replication at a.m.i. (log) of: -2 (HIV-RF; Conc. 1 (μM)): 2
Virus Replication at a.m.i. (log) of: -3 (HIV-RF; Conc. 1 (μM)): 2
Virus Replication at a.m.i. (log) of: -4 (HIV-RF; Conc. 1 (μM)): 1
Virus Replication at a.m.i. (log) of: -5 (HIV-RF; Conc. 1 (μM)): 2
Virus Replication at a.m.i. (log) of: -6 (HIV-RF; Conc. 1 (μM)): 2

CCCCC/C=C\C/C=C\C/C=C\C/C=C\CCCC(=O)O [^3H C20:4, Arachidonic Acid]
Binding of ^3H C20:4 to peptides or protein after Lipidex 1000 treatment (HIV p24 peptide): 0.8 x 10^-6 DPM/mg
Binding of ^3H C20:4 to peptides or protein after Lipidex 1000 treatment (HIV gp120 peptide; 270.000 DPM 3H C20:4, overnight at 4° C, 10 mM potassium phosphate buffer pH 7.4): 1.2 x 10^-6 DPM/mg
binding of C20:4 (HIV gp120 peptide; conclusion in words): clear binding
Solubility of ^3H C20:4 ([1]; in presence of 10 µg pure rat AFP): 100%
Solubility of ^3H C20:4 ([1]; in presence of gp120: 50µg): 65%
Solubility of ^3H C20:4 ([1]; in presence of gp120: 100µg): 90%
Solubility of ^3H C20:4 ([1]; in presence of p24 50µg): 23%
Solubility of ^3H C20:4 ([1]; in presence of p24 100µg): 30%
insolubility of the Arachidonic Acid ([1]; in the presence of p24 peptide, conclusion in words): important insolubility
Solubility of ^3H C20:4 ([1]; without peptide or protein): 70%
Binding of ^3H C20:4 to peptides or protein after Lipidex 1000 treatment [2]: 14.1 x 10^-6 DPM/mg

Source: EP0468441A1, “Use of particular compounds for manufacture of pharmaceutical formulations for metabolic treatments” (Prendergast, Patrick Thomas, priority 1990, dated 1992)
